Measurements published in ChEMBL document CHEMBL1201862, “PubChem BioAssay data set” (2004).
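Protocol summary: plate cells (96-well), add compound at 5 concentrations, incubate 48 h, interpolate endpoints linearly. At the GI50, growth is halved.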 The source made the active and inactive calls. No stated cut-off is given here; in the data, active = GI50 up to about 1.1 µM and inactive = higher.

Key:
Test in all cases: DTP human tumour cell line panel, 48 h
[1] = tested on: NCI-H23
[2] = tested on: SF-295
[3] = tested on: UACC-257
[4] = tested on: M14
[5] = tested on: KM12
[6] = tested on: OVCAR-8
[7] = tested on: RPMI-8226
[8] = tested on: NCI-H522
[9] = tested on: SW-620
[10] = tested on: HT-29
[11] = tested on: HCT-116
[12] = tested on: HL-60
[13] = tested on: MOLT-4
[14] = tested on: EKVX
[15] = tested on: SNB-19
[16] = tested on: ACHN
[17] = tested on: HCC 2998
[18] = tested on: HOP-92
[19] = tested on: SR
[20] = tested on: SK-MEL-5

COc1cc(NCc2ccc3oc(=O)c(-c4ccccc4)nc3c2)cc(OC)c1OC
GI50 [1]: > 10 µM (inactive) | GI50 [2]: > 10 µM (inactive) | GI50 [3]: > 10 µM (inactive) | GI50 [4]: > 10 µM (inactive) | GI50 [5]: > 10 µM (inactive) | GI50 [6]: > 10 µM (inactive) | GI50 [7]: > 10 µM (inactive) | GI50 [8]: > 10 µM (inactive) | GI50 [9]: > 10 µM (inactive) | GI50 [10]: > 10 µM (inactive) | GI50 [11]: > 10 µM (inactive) | GI50 [12]: > 10 µM (inactive) | GI50 [13]: > 10 µM (inactive) | GI50 [14]: > 10 µM (inactive) | GI50 [15]: > 10 µM (inactive) | GI50 [16]: > 10 µM (inactive) | GI50 [17]: > 10 µM (inactive) | GI50 [18]: > 10 µM (inactive) | GI50 [19]: > 10 µM (inactive) | GI50 [20]: > 10 µM (inactive)

Cn1cncc1CC1COC(=O)C1C(O)c1ccccc1 (stereo not given)
GI50 [1]: > 100 µM (inactive) | GI50 [2]: > 100 µM (inactive) | GI50 [3]: > 100 µM (inactive) | GI50 [4]: > 100 µM (inactive) | GI50 [5]: > 100 µM (inactive) | GI50 [6]: > 100 µM (inactive) | GI50 [7]: > 100 µM (inactive) | GI50 [8]: > 100 µM (inactive) | GI50 [9]: > 100 µM (inactive) | GI50 [10]: > 100 µM (inactive) | GI50 [11]: > 100 µM (inactive) | GI50 [12]: > 100 µM (inactive) | GI50 [13]: > 100 µM (inactive) | GI50 [14]: > 100 µM (inactive) | GI50 [15]: > 100 µM (inactive) | GI50 [16]: > 100 µM (inactive) | GI50 [17]: > 100 µM (inactive) | GI50 [18]: > 100 µM (inactive) | GI50 [19]: > 100 µM (inactive) | GI50 [20]: > 100 µM (inactive)

Cc1cccc(C(=O)O)c1CC1NCCC2c3ccccc3NC12 (stereo not given)
GI50 [1]: > 100 µM (inactive) | GI50 [2]: > 100 µM (inactive) | GI50 [3]: > 100 µM (inactive) | GI50 [4]: > 100 µM (inactive) | GI50 [5]: > 100 µM (inactive) | GI50 [6]: > 100 µM (inactive) | GI50 [7]: > 100 µM (inactive) | GI50 [8]: > 100 µM (inactive) | GI50 [9]: > 100 µM (inactive) | GI50 [10]: > 100 µM (inactive) | GI50 [11]: > 100 µM (inactive) | GI50 [12]: > 100 µM (inactive) | GI50 [13]: > 100 µM (inactive) | GI50 [14]: > 100 µM (inactive) | GI50 [15]: > 100 µM (inactive) | GI50 [16]: > 100 µM (inactive) | GI50 [17]: > 100 µM (inactive) | GI50 [18]: > 100 µM (inactive) | GI50 [19]: > 100 µM (inactive) | GI50 [20]: > 100 µM (inactive)

COc1ccc(OC)c(NS(=O)(=O)c2ccc3nc(C)n(NS(=O)(=O)c4cc(OC)ccc4OC)c(=O)c3c2)c1
GI50 [1]: 69.5 µM (inactive) | GI50 [2]: > 100 µM (inactive) | GI50 [3]: > 100 µM (inactive) | GI50 [4]: > 100 µM (inactive) | GI50 [5]: 62.5 µM (inactive) | GI50 [6]: > 100 µM (inactive) | GI50 [7]: 20.8 µM (inactive) | GI50 [8]: > 100 µM (inactive) | GI50 [9]: 96.4 µM (inactive) | GI50 [10]: 74.8 µM (inactive) | GI50 [11]: 21.7 µM (inactive) | GI50 [12]: 26.2 µM (inactive) | GI50 [13]: 15.2 µM (inactive) | GI50 [14]: > 100 µM (inactive) | GI50 [15]: > 100 µM (inactive) | GI50 [16]: > 100 µM (inactive) | GI50 [17]: 38.6 µM (inactive) | GI50 [18]: > 100 µM (inactive) | GI50 [19]: 14.8 µM (inactive) | GI50 [20]: 26.4 µM (inactive)

NCCSc1nc2ccccc2c(=O)n1-c1ccccc1
GI50 [1]: 50.2 µM (inactive) | GI50 [2]: 28.2 µM (inactive) | GI50 [3]: 77.1 µM (inactive) | GI50 [4]: 53.8 µM (inactive) | GI50 [5]: 41.7 µM (inactive) | GI50 [6]: 56.6 µM (inactive) | GI50 [7]: > 10 µM (inactive) | GI50 [8]: 30.8 µM (inactive) | GI50 [9]: 45.5 µM (inactive) | GI50 [10]: 49.7 µM (inactive) | GI50 [11]: 60.3 µM (inactive) | GI50 [12]: 32.8 µM (inactive) | GI50 [13]: > 10 µM (inactive) | GI50 [14]: > 100 µM (inactive) | GI50 [15]: 0.236 µM (active) | GI50 [16]: 21.6 µM (inactive) | GI50 [17]: 44.3 µM (inactive) | GI50 [18]: 10.3 µM (inactive) | GI50 [19]: 11.9 µM (inactive) | GI50 [20]: 74.3 µM (inactive)
